Among the test systems are HCT-15 colon; IGROV1 ovarian; KM12 colon; MOLT-4 leukemia; SF-268 CNS; SK-MEL-2 melanoma; UACC-257 melanoma; M14 melanoma; CAKI-1 renal.
Assay in all cases: NCI-60 cell line screen, 48 h

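Assay format: 96-well plates, 48-hour exposure. Here, GI50 denotes the concentration required for 50% inhibition of growth. TGI denotes the concentration required for complete inhibition of growth.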

For the compound `CC1(C)C2CCC13CS(=O)(=O)N1O[C@]13C(=O)O2` (stereo not given in full), the TGI in the assay with HCT-15 colon, in the assay on IGROV1 ovarian, with KM12 colon, in the assay with MOLT-4 leukemia, in the assay with SF-268 CNS and in the assay on SK-MEL-2 melanoma was greater than 100 µM throughout. This compound also displayed a TGI with UACC-257 melanoma greater than 100 µM.

For `CN(C)CCC(/C=C/c1ccccc1)=N\Nc1ccc(Cl)cc1Cl`, the TGI was 24.2 µM in the assay with HCT-15 colon; 20.9 µM in the assay on IGROV1 ovarian; 29.7 µM in the assay with KM12 colon; 26.6 µM in the assay with M14 melanoma; 25.9 µM in the assay with MOLT-4 leukemia; 28.2 µM with SF-268 CNS. Besides, the TGI in the assay on SK-MEL-2 melanoma worked out at 26.7 µM; in the assay with UACC-257 melanoma, 27 µM.

Consider `O=C(O)/C(Cl)=C(\Cl)C(=O)Nc1ccc(Cl)c(Cl)c1Cl`, for which the TGI with CAKI-1 renal was 32 µM; in the assay on HCT-15 colon it was 34.8 µM; in the assay on IGROV1 ovarian, 38.7 µM; in the assay with KM12 colon it was 36.6 µM; in the assay with M14 melanoma, 32.5 µM; with MOLT-4 leukemia, 59.7 µM. The TGI in the assay with SF-268 CNS came out at 42.8 µM; in the assay on SK-MEL-2 melanoma it was 33.9 µM; in the assay on UACC-257 melanoma it was 36.2 µM.

As to `Cc1cc(N(CCC#N)CCC#N)ccc1/C=C1/N=C(c2ccccc2)N(N)C1=O`, the TGI in the assay on CAKI-1 renal, with HCT-15 colon, in the assay on IGROV1 ovarian, with KM12 colon, in the assay on M14 melanoma and in the assay with MOLT-4 leukemia was greater than 100 µM in each case. The TGI in the assay with SF-268 CNS, in the assay with SK-MEL-2 melanoma and with UACC-257 melanoma was greater than 100 µM throughout.

On to `Cn1c2ccccc2n2c(=O)c3c(c(C#N)c12)CCCC3`, for which the TGI in the assay on CAKI-1 renal, in the assay with HCT-15 colon, in the assay with IGROV1 ovarian, in the assay on KM12 colon, with M14 melanoma and with MOLT-4 leukemia was greater than 100 µM in each case. The TGI in the assay on SF-268 CNS, with SK-MEL-2 melanoma and in the assay on UACC-257 melanoma was greater than 100 µM throughout.

Turning to `Cc1cc2c(c(C(=O)O)c1C)-c1cccc(F)c1C2=O`, the TGI in the assay on CAKI-1 renal, with HCT-15 colon, with IGROV1 ovarian, in the assay with KM12 colon, in the assay with M14 melanoma and with MOLT-4 leukemia was greater than 100 µM in each case. Moreover, the TGI with SF-268 CNS, in the assay on SK-MEL-2 melanoma and in the assay on UACC-257 melanoma was greater than 100 µM each time.

As for `COC1O[C@@H]2C[C@H]3C(C)(C)CCC[C@]3(C)C3=CCCC1[C@@]32C` (stereo not given in full), the GI50 with HCT-15 colon, in the assay on IGROV1 ovarian, with KM12 colon, with M14 melanoma, with MOLT-4 leukemia and in the assay on SF-268 CNS was greater than 100 µM each time. For the same compound, the GI50 with UACC-257 melanoma was greater than 100 µM. For the same compound, the TGI in the assay on HCT-15 colon, in the assay on IGROV1 ovarian, with KM12 colon, in the assay with M14 melanoma, with MOLT-4 leukemia and in the assay with SF-268 CNS was greater than 100 µM throughout. Besides, in the assay on UACC-257 melanoma, the TGI was greater than 100 µM.

Turning to `O=P1(Oc2ccccc2)C(c2ccccc2)C(c2ccccc2)=NN1c1ccccc1` (stereo not given), the TGI in the assay with CAKI-1 renal came to 65 µM; with HCT-15 colon, 44.7 µM; with IGROV1 ovarian, 69.9 µM; with KM12 colon it was 64.4 µM; in the assay with M14 melanoma, 39.6 µM; in the assay on MOLT-4 leukemia, 57 µM. The TGI turned out to be 93.6 µM in the assay on SF-268 CNS, 31.6 µM in the assay on SK-MEL-2 melanoma and 75.8 µM with UACC-257 melanoma.

Regarding `CC1(C)OCC(C(O)C2OC(C)(C)OC2/C=N\O)O1` (stereo not given), the TGI in the assay on IGROV1 ovarian, in the assay on KM12 colon, in the assay on MOLT-4 leukemia, in the assay with SF-268 CNS, with SK-MEL-2 melanoma and in the assay with UACC-257 melanoma was greater than 100 µM each time.

Take `CN1COc2c(n(C)c(=O)[nH]c2=O)C1`: the TGI in the assay on CAKI-1 renal was greater than 68.3 µM; with HCT-15 colon it was greater than 100 µM; with IGROV1 ovarian it was greater than 100 µM; with KM12 colon it was greater than 100 µM; in the assay on M14 melanoma, greater than 100 µM; in the assay with MOLT-4 leukemia it was greater than 100 µM. Moreover, the TGI in the assay with SF-268 CNS, with SK-MEL-2 melanoma and in the assay with UACC-257 melanoma was greater than 100 µM in each case.

As for `COC(CN1C=C(Sc2ccccc2)CC1)OC`, the TGI is greater than 100 µM in the assay on CAKI-1 renal; greater than 100 µM in the assay on HCT-15 colon; greater than 100 µM in the assay on IGROV1 ovarian; 67.8 µM in the assay on KM12 colon; greater than 100 µM with M14 melanoma; 80.3 µM in the assay with MOLT-4 leukemia. The results for the TGI with SF-268 CNS, with SK-MEL-2 melanoma and in the assay on UACC-257 melanoma were greater than 100 µM, 44.8 µM and 98.1 µM, respectively.

With `C/C=C(\C)c1cc(O)c(C)c2c1Oc1cc(O)c(Cl)c(C)c1C(=O)O2`, the TGI with CAKI-1 renal was greater than 100 µM; in the assay with KM12 colon, 47.6 µM; in the assay with M14 melanoma it was 43.4 µM; with SF-268 CNS it was 66 µM; with SK-MEL-2 melanoma it was 41.8 µM; in the assay with UACC-257 melanoma it was 44.2 µM.

Regarding `COC(=O)C(C)(C)N=CN(C)C`, the TGI in the assay on CAKI-1 renal, in the assay with HCT-15 colon, in the assay on IGROV1 ovarian, in the assay with KM12 colon, with M14 melanoma and in the assay with MOLT-4 leukemia was greater than 100 µM in each case. Besides, the TGI in the assay on SF-268 CNS, in the assay on SK-MEL-2 melanoma and in the assay on UACC-257 melanoma was greater than 100 µM each time.

Turning to `CCOC1=C2N=C(Cc3ccccc3F)N=C2C(=O)c2ccccc21`, the TGI with CAKI-1 renal, in the assay with HCT-15 colon, with KM12 colon, with M14 melanoma, in the assay on MOLT-4 leukemia and with SF-268 CNS was greater than 100 µM each time. The TGI in the assay on SK-MEL-2 melanoma and in the assay with UACC-257 melanoma was greater than 100 µM in each case.

Turning to `C=C1CCC2[C@@H](CCC3[C@]2(C)CCC[C@]3(C)C(=O)OC)[C@@H]1CC=O` (stereo not given in full), the GI50 in the assay with CAKI-1 renal was 35.8 µM; in the assay on KM12 colon it was 39.3 µM; in the assay on MOLT-4 leukemia, 23.6 µM. The TGI with CAKI-1 renal is greater than 100 µM; with HCT-15 colon it was 81.2 µM; with IGROV1 ovarian it was greater than 100 µM; in the assay with KM12 colon it was greater than 100 µM; in the assay with M14 melanoma, 40.2 µM; with MOLT-4 leukemia, 59.9 µM. In addition, the TGI is greater than 100 µM with SF-268 CNS, 91.7 µM in the assay on SK-MEL-2 melanoma and 68.9 µM in the assay with UACC-257 melanoma.

With `O=C(NC1CCCC1=O)c1ccccc1` (stereo not given), the TGI in the assay on CAKI-1 renal, with IGROV1 ovarian, with KM12 colon, in the assay with M14 melanoma, with MOLT-4 leukemia and with SF-268 CNS was greater than 100 µM throughout. Besides, the TGI with SK-MEL-2 melanoma and in the assay on UACC-257 melanoma was greater than 100 µM throughout.

Consider `CN1CCN(Cc2ccc(NC(=O)c3[nH]ncc3Nc3ncnc4sc5c(c34)CCCC5)cc2)CC1`, for which the GI50 is 0.197 µM with HCT-15 colon; 0.258 µM in the assay with IGROV1 ovarian; 0.222 µM with KM12 colon; 0.324 µM in the assay with M14 melanoma; 0.108 µM with MOLT-4 leukemia; 0.438 µM with SF-268 CNS. For the same compound, the figures for the GI50 in the assay on SK-MEL-2 melanoma and in the assay on UACC-257 melanoma were 0.665 µM and 1.21 µM, respectively. For the same compound, the TGI came to 1.28 µM with HCT-15 colon; 1.3 µM in the assay with IGROV1 ovarian; 1.29 µM in the assay on KM12 colon; 1.64 µM with M14 melanoma; 0.503 µM in the assay on MOLT-4 leukemia; 2 µM in the assay on SF-268 CNS. Further, the TGI with SK-MEL-2 melanoma was found to be 3.22 µM; in the assay with UACC-257 melanoma it was 3.29 µM.

Take `CNS(=O)(=O)NNS(=O)(=O)c1ccc(Cl)cc1`: the TGI in the assay on CAKI-1 renal, in the assay on IGROV1 ovarian, in the assay on KM12 colon, with M14 melanoma, with MOLT-4 leukemia and in the assay on SF-268 CNS was greater than 100 µM in each case. In addition, the TGI with SK-MEL-2 melanoma and with UACC-257 melanoma was greater than 100 µM throughout.

On to `CCO/C=C1\N=C(c2ccccc2Br)OC1=O`, for which the TGI in the assay on CAKI-1 renal, in the assay on HCT-15 colon, in the assay on M14 melanoma, in the assay with MOLT-4 leukemia, in the assay with SF-268 CNS and in the assay with SK-MEL-2 melanoma was greater than 100 µM throughout. Besides, in the assay with UACC-257 melanoma, the TGI is greater than 100 µM.

In the case of `COc1cc(-c2cc(-c3cc([N+](=O)[O-])c(/C=N/NC(=O)c4ccncc4)o3)ccc2OC)ccc1C`, the TGI in the assay with CAKI-1 renal, in the assay with IGROV1 ovarian, with M14 melanoma, in the assay on SF-268 CNS, with SK-MEL-2 melanoma and with UACC-257 melanoma was greater than 100 µM throughout.

As to `COc1ccc(C(Cl)=C(c2ccc(OCCN(C)C)cc2)c2ccc(OCCN(C)C)cc2)cc1`, the TGI was 16.3 µM with CAKI-1 renal; 3.58 µM in the assay on HCT-15 colon; 13.3 µM in the assay on IGROV1 ovarian; 2.83 µM with KM12 colon; 2.92 µM in the assay on M14 melanoma; 6.04 µM with MOLT-4 leukemia. For the same compound, the TGI was 4.71 µM in the assay with SF-268 CNS and 3.12 µM in the assay with SK-MEL-2 melanoma.

`N#Cc1ccc(N=Cc2c([O-])ccc3ccccc23)cc1.[C-]#[O+].[C-]#[O+].[Ir]`: the GI50 was 2.92 µM in the assay on CAKI-1 renal; 14.1 µM in the assay with IGROV1 ovarian; 16.6 µM in the assay with KM12 colon; 5.22 µM with M14 melanoma; 4.16 µM in the assay with MOLT-4 leukemia; 14.8 µM with SF-268 CNS. For the same compound, the GI50 in the assay on UACC-257 melanoma was 10.6 µM. The TGI with CAKI-1 renal was determined as 6.26 µM; with IGROV1 ovarian it was 27.9 µM; in the assay on KM12 colon, 30.2 µM; in the assay on M14 melanoma it was 19 µM; with MOLT-4 leukemia, 19.3 µM; in the assay on SF-268 CNS, 29.2 µM. Further, the TGI in the assay on UACC-257 melanoma worked out at 29 µM.

Values taken from PubChem BioAssay (NCI).
